Data on 26 compounds can be found in patent US11926614B2, “1,2,4-triazole derivatives as tankyrase inhibitors” (priority 2018, dated 2024).

Read-outs that look alike come from different tables or passages of the source.

Assay [1] concerns HEK293. Kind of assay: Cellular IC50 HEK293. The assay is classed as cell-based. The source says: (§1) XLfit (idbs) was used to determine the IC50-values in inhibition experiments. The following formula was chosen to fit the data points (Langmuir Binding Isotherm): fit=((A+(B*x))+4(C−B)*(1−exp((−1*D)*x)))/D)), res=(y−fit)
Assay [2] has as its target TNKS2 (Homo sapiens (Human), UniProt Q9H2K2). Kind of assay: Biochemical IC50 TNKS2.
Excerpt: as §1

Setting [3] is: Homo sapiens, HEK293, HEK293; read-out: Cellular IC50 HEK293.
The mark [4] stands for this setting: Homo sapiens, HEK293; read-out: Cellular IC50 HEK293.
Setting [5] is: read-out: Biochemical IC50 TNKS2.
Setting [6] is: Homo sapiens, HEK293, read-out: Cellular IC50 HEK293.

TNKS2, sequence (Q9H2K2 whole entry): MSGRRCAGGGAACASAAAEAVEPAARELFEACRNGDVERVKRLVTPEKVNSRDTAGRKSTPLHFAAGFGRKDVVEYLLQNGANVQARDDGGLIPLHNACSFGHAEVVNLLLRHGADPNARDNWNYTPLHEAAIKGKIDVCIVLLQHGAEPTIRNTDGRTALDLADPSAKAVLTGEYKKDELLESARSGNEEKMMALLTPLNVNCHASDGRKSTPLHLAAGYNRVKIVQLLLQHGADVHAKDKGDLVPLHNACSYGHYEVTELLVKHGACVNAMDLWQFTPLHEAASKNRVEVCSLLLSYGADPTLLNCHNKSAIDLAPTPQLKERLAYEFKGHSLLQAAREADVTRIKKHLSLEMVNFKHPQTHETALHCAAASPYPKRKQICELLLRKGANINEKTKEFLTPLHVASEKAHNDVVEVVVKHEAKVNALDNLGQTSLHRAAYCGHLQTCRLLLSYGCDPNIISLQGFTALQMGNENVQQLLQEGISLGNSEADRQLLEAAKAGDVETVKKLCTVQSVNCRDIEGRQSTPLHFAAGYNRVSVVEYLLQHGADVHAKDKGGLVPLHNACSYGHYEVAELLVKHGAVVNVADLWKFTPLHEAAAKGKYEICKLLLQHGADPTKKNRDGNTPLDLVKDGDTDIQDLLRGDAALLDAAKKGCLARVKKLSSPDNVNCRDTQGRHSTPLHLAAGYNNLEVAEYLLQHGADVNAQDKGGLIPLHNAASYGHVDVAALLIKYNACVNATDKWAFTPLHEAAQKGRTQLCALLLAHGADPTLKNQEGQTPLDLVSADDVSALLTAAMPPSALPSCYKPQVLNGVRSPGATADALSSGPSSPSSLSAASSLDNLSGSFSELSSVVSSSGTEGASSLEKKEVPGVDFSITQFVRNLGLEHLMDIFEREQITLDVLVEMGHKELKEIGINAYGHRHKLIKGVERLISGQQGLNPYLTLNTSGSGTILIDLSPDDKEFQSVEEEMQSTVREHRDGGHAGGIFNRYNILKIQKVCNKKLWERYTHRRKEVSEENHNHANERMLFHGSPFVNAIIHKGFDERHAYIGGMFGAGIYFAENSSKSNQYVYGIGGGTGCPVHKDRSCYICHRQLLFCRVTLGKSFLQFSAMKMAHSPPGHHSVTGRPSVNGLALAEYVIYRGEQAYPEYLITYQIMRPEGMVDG

In general, IC50 refers to the concentration that inhibits the measured activity by half. Turning to `[2H]C([2H])([2H])C([2H])([2H])Oc1ccc(-c2nnc([C@H]3C[C@H](NC(=O)c4cccc5cccnc45)C3)n2-c2ccccc2F)nc1` [Example 95, N-((1S,3r)-3-(5-(5-(ethoxy-d5)pyridin-2-yl)-4-(2-fluorophenyl)-4H-1,2,4-triazol-3-yl)cyclobutyl)quinoline-8-carboxamide], the figures for the IC50 in assay [1] (setting [3]) and in assay [2] were 0.48 nM and 3.5 nM, respectively.

Take `O=C(N[C@H]1C[C@H](c2nnc(-c3ccncn3)n2-c2ccccc2Cl)C1)c1ccccn1` [Example 10, N-((1S,3r)-3-(4-(2-chlorophenyl)-5-(pyrimidin-4-yl)-4H-1,2,4-triazol-3-yl)cyclobutyl)picolinamide]: the IC50 in assay [1] (setting [4]) was found to be 0.2 nM; in assay [2] (setting [5]), 1.5 nM.

`CCOc1ccc(-c2nnc([C@H]3C[C@H](NC(=O)c4ccc5cc(F)ccc5n4)C3)n2-c2ccccc2F)nc1` [Example 155, N-((1S,3r)-3-(5-(5-ethoxypyridin-2-yl)-4-(2-fluorophenyl)-4H-1,2,4-triazol-3-yl)cyclobutyl)-6-fluoroquinoline-2-carboxamide]: the IC50 was determined as 12 nM in assay [1] (setting [3]) and 9.1 nM in assay [2] (setting [5]).

With `O=C(N[C@H]1C[C@H](c2nnc(-c3ccccc3)n2-c2ccccc2F)C1)c1ccccn1` [Example 174, N-((1S,3r)-3-(4-(2-fluorophenyl)-5-phenyl-4H-1,2,4-triazol-3-yl)cyclobutyl)picolinamide], the figures for the IC50 in assay [1] (setting [6]) and in assay [2] (setting [5]) were 789 nM and 216 nM, respectively.

Consider `Cc1cccc(-c2nnc([C@H]3C[C@H](NC(=O)c4cccc5nccnc45)C3)n2-c2ccccc2F)n1` [Example 201, N-((1S,3r)-3-(4-(2-fluorophenyl)-5-(6-methylpyridin-2-yl)-4H-1,2,4-triazol-3-yl)cyclobutyl)quinoxaline-5-carboxamide], for which the IC50 in assay [1] (setting [6]) is 1.5 nM; in assay [2] (setting [5]), 1.7 nM.

As to `CCOc1ccc(-c2nnc([C@H]3C[C@H](NC(=O)c4cccc5cccnc45)C3)n2-c2ccccc2F)nc1` [Example 60, N-((1S,3r)-3-(5-(5-ethoxypyridin-2-yl)-4-(2-fluorophenyl)-4H-1,2,4-triazol-3-yl)cyclobutyl)quinoline-8-carboxamide], the results for the IC50 in assay [1] (setting [3]) and in assay [2] (setting [5]) were 1.1 nM and 2.1 nM, respectively.

As for `CCOc1ccc(-c2nnc([C@H]3C[C@H](NC(=O)c4cccc5cn[nH]c45)C3)n2-c2ccccc2F)nc1` [Example 156, N-((1S,3r)-3-(5-(5-ethoxypyridin-2-yl)-4-(2-fluorophenyl)-4H-1,2,4-triazol-3-yl)cyclobutyl)-1H-indazole-7-carboxamide], the IC50 in assay [1] (setting [3]) turned out to be 67 nM; in assay [2] (setting [5]), 21 nM.

Consider `CCOc1ccc(-c2nnc(C34CC(NC(=O)c5ccnc6cccnc56)(C3)C4)n2-c2ccccc2F)nc1` [Example 62, N-(3-(5-(5-ethoxypyridin-2-yl)-4-(2-fluorophenyl)-4H-1,2,4-triazol-3-yl)bicyclo[1.1.1]pentan-1-yl)-1,5-naphthyridine-4-carboxamide], for which the figures for the IC50 in assay [1] (setting [3]) and in assay [2] (setting [5]) were 2.1 nM and 1.3 nM, respectively.

Turning to `CCOc1ccc(-c2nnc([C@H]3C[C@H](NC(=O)c4cccc(C(C)O)n4)C3)n2-c2ccccc2F)nc1` (stereo partly drawn) [Example 128, N-((1R,3r)-3-(5-(5-ethoxypyridin-2-yl)-4-(2-fluorophenyl)-4H-1,2,4-triazol-3-yl)cyclobutyl)-6-(1-hydroxyethyl)picolinamide], the IC50 is 230 nM in assay [1] (setting [3]) and 37 nM in assay [2] (setting [5]).

As for `O=C(N[C@H]1C[C@H](c2nnc(-c3ccccn3)n2-c2ccccc2F)C1)c1cc(F)cc2nccnc12` [Example 194, 7-fluoro-N-((1S,3r)-3-(4-(2-fluorophenyl)-5-(pyridin-2-yl)-4H-1,2,4-triazol-3-yl)cyclobutyl)quinoxaline-5-carboxamide], the IC50 in assay [1] (setting [6]) is 0.794 nM; in assay [2] (setting [5]) it was 2 nM.

As for `CCOc1ccc(-c2nnc([C@H]3C[C@H](NC(=O)c4cc5ncccc5[nH]4)C3)n2-c2ccccc2F)nc1` [Example 148, N-((1S,3r)-3-(5-(5-ethoxypyridin-2-yl)-4-(2-fluorophenyl)-4H-1,2,4-triazol-3-yl)cyclobutyl)-1H-pyrrolo[3,2-b]pyridine-2-carboxamide], the values for the IC50 in assay [1] (setting [3]) and in assay [2] (setting [5]) were 8 nM and 5 nM, respectively.

Turning to `O=C(N[C@H]1C[C@H](c2nnc(-c3nccs3)n2-c2ccccc2)C1)c1ccnc2cccnc12` [Example 33, N-((1r,3r)-3-(4-phenyl-5-(thiazol-2-yl)-4H-1,2,4-triazol-3-yl)cyclobutyl)-1,5-naphthyridine-4-carboxamide], the IC50 worked out at 4.3 nM in assay [1] (setting [3]) and 3.1 nM in assay [2] (setting [5]).

In the case of `CCOc1ccc(-c2nnc([C@H]3C[C@H](NC(=O)c4ccnc5cc(F)cnc45)C3)n2-c2cccnc2)nc1` [Example 164, N-((1r,3r)-3-(5-(5-ethoxypyridin-2-yl)-4-(pyridin-3-yl)-4H-1,2,4-triazol-3-yl)cyclobutyl)-7-fluoro-1,5-naphthyridine-4-carboxamide], the IC50 in assay [1] (setting [6]) came to 9 nM; in assay [2] (setting [5]), 5.8 nM.

Regarding `CCOc1ccc(-c2nnc([C@H]3C[C@H](NC(=O)c4cn5ccccc5n4)C3)n2-c2ccccc2F)nc1` [Example 118, N-((1S,3r)-3-(5-(5-ethoxypyridin-2-yl)-4-(2-fluorophenyl)-4H-1,2,4-triazol-3-yl)cyclobutyl)imidazo[1,2-a]pyridine-2-carboxamide], the IC50 in assay [1] (setting [3]) was 100 nM; in assay [2] (setting [5]), 12 nM.

For `Cc1cccc(-c2nnc([C@H]3C[C@H](NC(=O)c4cc(F)cc5nccnc45)C3)n2-c2ccccc2F)n1` [Example 202, 7-fluoro-N-((1S,3r)-3-(4-(2-fluorophenyl)-5-(6-methylpyridin-2-yl)-4H-1,2,4-triazol-3-yl)cyclobutyl)quinoxaline-5-carboxamide], the IC50 came to 0.169 nM in assay [1] (setting [6]) and 1.6 nM in assay [2] (setting [5]).

In the case of `CCOc1ccc(-c2nnc([C@H]3C[C@H](NC(=O)c4ccnc5cc(F)cnc45)C3)n2-c2ccccc2F)nc1` [Example 57, N-((1S,3r)-3-(5-(5-ethoxypyridin-2-yl)-4-(2-fluorophenyl)-4H-1,2,4-triazol-3-yl)cyclobutyl)-7-fluoro-1,5-naphthyridine-4-carboxamide], the IC50 in assay [1] (setting [4]) came out at 0.17 nM; in assay [2] (setting [5]) it was 2 nM.

`CCOc1ccc(C(=O)N[C@H]2C[C@H](c3nnc(-c4ccc(OCC)cn4)n3-c3ccccc3F)C2)nc1` [Example 58, 5-ethoxy-N-((1S,3r)-3-(5-(5-ethoxypyridin-2-yl)-4-(2-fluorophenyl)-4H-1,2,4-triazol-3-yl)cyclobutyl)picolinamide]: the IC50 in assay [1] (setting [3]) stood at 10 nM; in assay [2] (setting [5]), 2 nM.

With `CCOc1ccc(-c2nnc([C@H]3C[C@H](NC(=O)c4ccc(F)cc4)C3)n2-c2ccccc2)nc1` [Example 70, N-((1r,3r)-3-(5-(5-ethoxypyridin-2-yl)-4-phenyl-4H-1,2,4-triazol-3-yl)cyclobutyl)-4-fluorobenzamide], the IC50 in assay [1] (setting [3]) stood at 48 nM; in assay [2] (setting [5]), 8.5 nM.

Regarding `CCOc1ccc(-c2nnc([C@H]3C[C@H](NC(=O)c4cc5occc5[nH]4)C3)n2-c2ccccc2F)nc1` [Example 151, N-((1S,3r)-3-(5-(5-ethoxypyridin-2-yl)-4-(2-fluorophenyl)-4H-1,2,4-triazol-3-yl)cyclobutyl)-4H-furo[3,2-13]pyrrole-5-carboxamide], the IC50 in assay [1] (setting [3]) was found to be 35 nM; in assay [2] (setting [5]), 14 nM.

Take `N#Cc1cccc(C(=O)N[C@H]2C[C@H](c3nnc(-c4ccncn4)n3-c3ccccc3Cl)C2)c1` [Example 132, N-((1R,3r)-3-(4-(2-chlorophenyl)-5-(pyrimidin-4-yl)-4H-1,2,4-triazol-3-yl)cyclobutyl)-3-cyanobenzamide]: the IC50 was found to be 39 nM in assay [1] (setting [3]) and 6.6 nM in assay [2] (setting [5]).

Consider `[2H]C([2H])([2H])C([2H])([2H])Oc1ccc(-c2nnc([C@H]3C[C@H](NC(=O)c4cnn5ccccc45)C3)n2-c2ccccc2F)nc1` [Example 142, N-((1S,3r)-3-(5-(5-(ethoxy-d5)pyridin-2-yl)-4-(2-fluorophenyl)-4H-1,2,4-triazol-3-yl)cyclobutyl)pyrazolo[1,5-a]pyridine-3-carboxamide], for which the IC50 was 55 nM in assay [1] (setting [3]) and 23 nM in assay [2].

For the compound `CCOc1ccc(-c2nnc([C@H]3C[C@H](NC(=O)c4ccnc5cc(F)cnc45)C3)n2-c2ccncc2)nc1` [Example 170, N-((1r,3r)-3-(5-(5-ethoxypyridin-2-yl)-4-(pyridin-4-yl)-4H-1,2,4-triazol-3-yl)cyclobutyl)-7-fluoro-1,5-naphthyridine-4-carboxamide], the IC50 in assay [1] (setting [6]) came to 6 nM; in assay [2] (setting [5]), 2.9 nM.

`O=C(N[C@H]1C[C@H](c2nnc(-c3ccc(OC(F)F)cn3)n2-c2ccccc2F)C1)c1ccc2cnccc2n1` [Example 184, N-((1S,3r)-3-(5-(5-(difluoromethoxy)pyridin-2-yl)-4-(2-fluorophenyl)-4H-1,2,4-triazol-3-yl)cyclobutyl)-1,6-naphthyridine-2-carboxamide]: the IC50 in assay [1] (setting [3]) amounted to 10 nM; in assay [2] (setting [5]) it was 3.4 nM.

For the compound `O=C(N[C@H]1C[C@H](c2nnc(-c3ccncn3)n2-c2ccccc2Cl)C1)c1ccnc2ccccc12` [Example 6, N-((1S,3r)-3-(4-(2-chlorophenyl)-5-(pyrimidin-4-yl)-4H-1,2,4-triazol-3-yl)cyclobutyl)quinoline-4-carboxamide], the results for the IC50 in assay [1] (setting [3]) and in assay [2] (setting [5]) were 1300 nM and 680 nM, respectively.

Turning to `CCOc1ccc(-c2nnc([C@H]3C[C@H](NC(=O)c4ccc5cc[nH]c5n4)C3)n2-c2ccccc2F)nc1` [Example 98, N-((1S,3r)-3-(5-(5-ethoxypyridin-2-yl)-4-(2-fluorophenyl)-4H-1,2,4-triazol-3-yl)cyclobutyl)-1H-pyrrolo[2,3-b]pyridine-6-carboxamide], the IC50 in assay [1] (setting [3]) was found to be 14 nM; in assay [2] (setting [5]), 4.9 nM.

As for `O=C(N[C@H]1C[C@H](c2nnc(-c3ccncn3)n2-c2ccccc2Cl)C1)c1ccccc1` [Example 12, N-((1S,3r)-3-(4-(2-chlorophenyl)-5-(pyrimidin-4-yl)-4H-1,2,4-triazol-3-yl)cyclobutyl)benzamide], the IC50 in assay [1] (setting [3]) was 3 nM; in assay [2] (setting [5]) it was 5.5 nM.
